Results taken from ChEMBL document CHEMBL5038674, “Structure-Activity Relationship of Anti-Mycobacterium abscessus Piperidine-4-carboxamides, a New Class of NBTI DNA Gyrase Inhibitors” (ACS Med Chem Lett, 2022).
Converted amounts (≈) assume the structure as drawn. The source made the active and inactive calls. The calls are words filed in the database; no cut-off is given here.

Columns and labels:
[1] = Lipophilicity, logP of compound; type: physicochemical; conditions: octanol/water
[2] = Antimycobacterial activity against Mycobacterium abscessus subsp. abscessus bamboo strain assessed as inhibition of mycobacterial growth incubated for 3 days by broth microdilution method; type: functional; conditions: Mycobacteroides abscessus, 72 h, time 3 day
Staphylococcus aureus = experiment: Antibacterial activity against Staphylococcus aureus assessed as inhibition of bacterial growth incubated for 3 days by broth microdilution method; type: functional; conditions: 72 h, time 3 day
Mycobacterium avium = experiment: Antimycobacterial activity against Mycobacterium avium 11 assessed as inhibition of mycobacterial growth incubated for 3 days by broth microdilution method; type: functional; conditions: Mycobacterium avium, 11, 72 h; time 3 day
[3] = Stability of compound in CD1 mouse plasma assessed as parent compound remaining by QE-HRMS analysis; type: ADME, cell-free
[4] = Antimycobacterial activity against Mycobacterium abscessus subsp. massiliense CCUG 48898T assessed as inhibition of mycobacterial growth incubated for 3 days by broth microdilution method; type: functional; conditions: Mycobacteroides abscessus, 72 h, time 3 day
FaDu = experiment: Cytotoxicity against human FaDu cells assessed as reduction in cell viability upto 30 uM after 24 hrs by SRB assay; type: functional, cell-based; conditions: dose microM <=30, time 24.0 hrs
HEK293 = experiment: Cytotoxicity against human HEK293 cells assessed as reduction in cell viability upto 30 uM after 24 hrs by SRB assay; type: toxicity, cell-based; conditions: hek293, 24 h
[5] = Inhibition of Mycobacterium abscessus DNA gyrase using pBR322 DNA as substrate […] by fluorescence based microplate reader assay; set-up: species or system Mycobacteroides abscessus
[6] = system: Mycobacteroides abscessus; experiment: Antimycobacterial activity against Mycobacterium abscessus K21 assessed as inhibition of mycobacterial growth incubated for 3 days by broth microdilution method; type: functional; conditions: K21, 72 h, time 3 day
[7] = Antimycobacterial activity against Mycobacterium abscessus subsp. bolletii CCUG 50184T assessed as inhibition of mycobacterial growth incubated for 3 days by broth microdilution method; type: functional; conditions: Mycobacteroides abscessus, 72 h, time 3 day
[8] = Stability of compound in CD1 mouse at 25 mg/kg, po by HPLC-MS/MS analysis; type: ADME, organism-based; conditions: in vivo
HT-29 = experiment: Cytotoxicity against human HT-29 cells assessed as reduction in cell viability upto 30 uM after 24 hrs by SRB assay; type: functional, cell-based; conditions: dose microM <=30, time 24.0 hrs
A-375 = experiment: Cytotoxicity against human A375 cells assessed as reduction in cell viability upto 30 uM after 24 hrs by SRB assay; type: functional, cell-based; conditions: dose microM <=30, time 24.0 hrs
[9] = system: Mycobacteroides abscessus; experiment: Antimycobacterial activity against Mycobacterium abscessus ATCC 19977 assessed as inhibition of mycobacterial growth incubated for 3 days by broth microdilution method; type: functional; conditions: ATCC 19977, 72 h, time 3 day
NIH3T3 = experiment: Cytotoxicity against mouse NIH3T3 cells assessed as reduction in cell viability upto 30 uM after 24 hrs by SRB assay; type: toxicity, cell-based; conditions: nih3t3, 24 h
MCF7 = experiment: Cytotoxicity against human MCF7 cells assessed as reduction in cell viability upto 30 uM after 24 hrs by SRB assay; type: functional, cell-based; conditions: dose microM <=30, time 24.0 hrs
[10] = molecular target: Voltage-gated inwardly rectifying potassium channel KCNH2 (Homo sapiens, UniProt Q12809); experiment: Inhibition of human ERG; type: toxicity
Sequence of Voltage-gated inwardly rectifying potassium channel KCNH2 (Q12809 whole entry): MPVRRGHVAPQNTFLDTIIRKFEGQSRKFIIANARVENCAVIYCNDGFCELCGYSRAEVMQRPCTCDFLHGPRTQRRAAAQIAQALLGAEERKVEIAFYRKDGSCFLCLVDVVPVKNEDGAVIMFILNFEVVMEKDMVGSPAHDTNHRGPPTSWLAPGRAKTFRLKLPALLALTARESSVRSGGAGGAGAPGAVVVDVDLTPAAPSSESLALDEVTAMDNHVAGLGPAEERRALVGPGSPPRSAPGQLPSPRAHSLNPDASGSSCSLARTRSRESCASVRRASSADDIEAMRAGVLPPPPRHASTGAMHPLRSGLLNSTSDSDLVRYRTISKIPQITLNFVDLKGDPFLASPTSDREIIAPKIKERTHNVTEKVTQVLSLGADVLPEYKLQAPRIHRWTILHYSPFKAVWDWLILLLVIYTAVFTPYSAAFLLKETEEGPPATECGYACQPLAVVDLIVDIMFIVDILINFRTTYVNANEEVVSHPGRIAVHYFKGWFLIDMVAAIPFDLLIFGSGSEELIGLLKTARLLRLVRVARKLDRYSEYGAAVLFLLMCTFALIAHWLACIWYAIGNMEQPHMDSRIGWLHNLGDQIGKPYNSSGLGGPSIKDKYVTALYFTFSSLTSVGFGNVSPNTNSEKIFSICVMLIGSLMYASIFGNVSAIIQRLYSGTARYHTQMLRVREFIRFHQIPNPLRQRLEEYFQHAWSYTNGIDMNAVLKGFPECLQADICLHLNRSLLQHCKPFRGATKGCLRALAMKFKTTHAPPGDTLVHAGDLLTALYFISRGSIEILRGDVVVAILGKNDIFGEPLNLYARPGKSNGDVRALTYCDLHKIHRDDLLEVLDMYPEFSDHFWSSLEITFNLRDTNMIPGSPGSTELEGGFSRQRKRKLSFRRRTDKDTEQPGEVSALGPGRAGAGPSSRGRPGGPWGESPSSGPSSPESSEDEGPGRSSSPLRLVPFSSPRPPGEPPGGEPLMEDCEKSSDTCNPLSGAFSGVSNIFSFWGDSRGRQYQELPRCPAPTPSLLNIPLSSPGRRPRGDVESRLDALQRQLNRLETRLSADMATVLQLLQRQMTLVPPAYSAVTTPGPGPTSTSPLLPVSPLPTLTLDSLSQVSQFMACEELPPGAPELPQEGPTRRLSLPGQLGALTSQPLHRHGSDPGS

In the case of `COc1ccc2nccc(NC(=O)C3CCN(CCc4cccc(F)c4F)CC3)c2n1`, the logP [1] is reported as 2.3 and the MIC90 [2] is reported as 100 µM (≈ 42.6 µg/mL).
For `COc1ccc2nccc(NC(=O)C3(C)CCN(CCc4ccc(C(F)(F)F)cc4)CC3)c2n1`, the MIC90 (Staphylococcus aureus) was 1 µM (≈ 0.473 µg/mL), the MIC90 (Mycobacterium avium) was 6 µM (≈ 2.84 µg/mL) and the Stability [3] was “Stable”. For the same compound, the MIC90 [4] was 8 µM (≈ 3.78 µg/mL), the Activity (FaDu) was “inactive” and the Activity (HEK293) was “Non-Toxic”. The IC50 [5] was 6 µM, the MIC90 [6] was 8 µM (≈ 3.78 µg/mL) and the MIC90 [7] was 6.4 µM (≈ 3.02 µg/mL). The Stability [8] was “Stable”, the Activity (HT-29) was “inactive” and the logP [1] was 3.3. For the same compound, the Activity (A-375) was “inactive”, the MIC90 [9] was 3 µM (≈ 1.42 µg/mL) and the Activity (NIH3T3) was “Non-Toxic”. For the same compound, the Activity (MCF7) was “inactive” and the MIC90 [2] was 3 µM (≈ 1.42 µg/mL).
Work on `COc1ccc2nccc(NC(=O)C3CCN(CCc4ccc(F)cc4F)CC3)c2n1` yielded a logP [1] of 2.3 and an MIC90 [2] of 50 µM (≈ 21.3 µg/mL).
For `COc1ccc2nccc(NC(=O)C3CCN(CCc4cc(F)cc(F)c4)CC3)c2n1`, the logP [1] was 2.3 and the MIC90 [2] was 50 µM (≈ 21.3 µg/mL).
For `COc1c(N2C[C@@H]3CCCN[C@@H]3C2)c(F)cc2c(=O)c(C(=O)O)cn(C3CC3)c12` [MOXIFLOXACIN], the MIC90 (Staphylococcus aureus) was 0.2 µM (≈ 0.0803 µg/mL), the MIC90 (Mycobacterium avium) was 0.6 µM (≈ 0.241 µg/mL) and the MIC90 [4] was 4 µM (≈ 1.61 µg/mL). The MIC90 [6] was 4 µM (≈ 1.61 µg/mL), the MIC90 [7] was 4 µM (≈ 1.61 µg/mL) and the MIC90 [9] was 2 µM (≈ 0.803 µg/mL). For the same compound, the MIC90 [2] was 2 µM (≈ 0.803 µg/mL).
For `COc1ccc2nccc(NC(=O)C3CCN(CCc4ccc(C(F)(F)F)cc4)CC3)c2c1`, the IC50 [5] was 6 µM, the logP [1] was 3 and the MIC90 [2] was 100 µM (≈ 45.7 µg/mL).
Work on `COc1cnc2ccc(=O)n(CCN3CCC(NCc4ccc(Cl)c(Cl)c4)CC3)c2c1` yielded an IC50 [10] of 1.32 µM and an MIC [2] of under 0.02 µM.
In the case of `COc1ccc2cccc(NC(=O)C3CCN(CCc4ccc(C(F)(F)F)cc4)CC3)c2n1`, the Activity (FaDu) is reported as “inactive”, the Activity (HEK293) is reported as “Non-Toxic” and the IC50 [5] is reported as 3 µM. For the same compound, the Activity (HT-29) was “inactive”, the logP [1] was 3.6 and the Activity (A-375) was “inactive”. The Activity (NIH3T3) was “Non-Toxic”, the Activity (MCF7) was “inactive” and the MIC90 [2] was 3.12 µM (≈ 1.43 µg/mL).
`COc1ccc2nccc(NC(=O)C3CCN(CCc4ccc(F)c(F)c4)CC3)c2n1` showed a logP [1] of 2.3 and an MIC90 [2] of 25 µM (≈ 10.7 µg/mL).
`O=C(Nc1cccc2ccc(Cl)nc12)C1CCN(CCc2ccc(C(F)(F)F)cc2)CC1` gave an IC50 [5] of 3 µM, a logP [1] of 3.9 and an MIC90 [2] of 50 µM (≈ 23.1 µg/mL).
Work on `COc1ccc2nccc(NC(=O)C3CCN(CCc4ccc(Cl)cc4)CC3)c2c1` yielded a logP [1] of 2.8 and an MIC90 [2] of 50 µM (≈ 21.2 µg/mL).
With `COc1ccc2nccc(NC(=O)C3CCN(CCc4cccc(F)c4)CC3)c2n1` the logP [1] was 2.1 and the MIC90 [2] was 25 µM (≈ 10.2 µg/mL).
For `COc1ccc2nccc(NC(=O)C3CCN(CCc4ccc(Cl)cc4)CC3)c2n1`, the Activity (FaDu) was “inactive”, the IC50 [5] was 3 µM and the Activity (HT-29) was “inactive”. The logP [1] was 2.6, the Activity (A-375) was “inactive” and the Activity (MCF7) was “inactive”. The MIC90 [2] was 12 µM (≈ 5.1 µg/mL).
